Test results reported in publication PMC12706794, “Identification and Characterization of a Small-Molecule Inhibitor of the Pseudomonas aeruginosa SOS Response” (ACS Infectious Diseases, 2025).

How the values were obtained:
RecAPa = biological target: T1, RecAPa (Pseudomonas aeruginosa, UniProt P08280); assay: ESI-MS analysis of RecAPa preincubated with A12; assay type: binding, P. aeruginosa; details: 2 mM A12, 2 h at 25 °C; condensation, Lys285
T1 construct: made in house; host or cells: E. coli BL21(DE3)
Protocol: Then, ESI-MS analysis was carried out on both RecAPa and LexAPa alone and preincubated with A12 (referred to as RecAPa-A12 and LexAPa-A12, respectively).
MS analysis was carried out on 5 μL samples of compound A12 (2 mM), of the proteins 6His-LexAPa and 6His-RecAPa (50 μM), and of the same proteins incubated with 2 mM A12 (2 h incubation at 25 °C, 10% v/v DMSO in 100 mM NaHCO3 pH 7.0). Aliquots of the latter samples were treated with 5 mM dithiothreitol (DTT) for 1 h at 25 °C before being buffer-exchanged in 100 mM NaHCO3 at pH 7.0. Samples were analyzed by an electrospray ionization (ESI) mass spectrometer equipped with a Xevo G2-XS ESI-Q-TOF mass spectrometer (Waters Corporation, Milford, Massachusetts, USA). Measurements were carried out at 1.5–1.8 kV capillary voltage and 30–40 V cone voltage.
Tryptic digestion was obtained at a 1:20 trypsin to protein ratio (by weight) after the incubation of the proteins (6His-LexAPa and 6His-RecAPa) with chemical compound A12. The reaction was left at 37 °C overnight and then stopped by freezing at – 20 °C. Proteolytic mixtures were analyzed by LC–MS, using an Agilent AdvanceBio Peptide Map column (2.1 × 150 mm × 2.7 μm; Santa Clara, CA, USA) connected to an Acquity H-Class instrument (Waters Corporation, Milford, Massachusetts, USA). […]

[1] = biological target: T2, RecAPa*-induced FlAsH-LexAPa CTD autoproteolysis (Pseudomonas aeruginosa, UniProt P37452); assay: FP-based RecA*-induced LexA autoproteolysis in vitro assay; assay type: biochemical, P. aeruginosa
T2 construct: 6His-SUMO (N, cleaved yes); made in house; host or cells: E. coli BL21(DE3)
Protocol: A custom-made library of 318 small molecules (MW < 1000 Da) has been screened at two different concentrations (25 μg/mL and 125 μg/mL, corresponding to molar concentrations of 30–170 μM and 150–850 μM, respectively) on the P. aeruginosa SOS system by a previously validated fluorescence polμarization (FP)-based RecA*-induced LexA autoproteolysis in vitro assay. , 1 μM FlAsH-LexAPa ^CTD and 1 μM preactivated RecA*Pa were incubated with the screened chemical fragments for 1 h at 37 °C before measuring FP.
Then, the FP-based LexA autoproteolysis assay was repeated on the two hits, monitoring the full kinetics of LexA cleavage over a 1 h incubation and exploring a wide range of drug concentrations (10–1000 μM).
A custom-made library of 318 chemical fragments (25 mg/mL stock solutions in DMSO), provided by P. Kavaliauskas (Weill Cornell Medicine of Cornell University) was screened in vitro for their ability to inhibit RecAPa*-mediated LexAPa autoproteolysis by a Fluorescence Polarization (FP)-based assay. , Twenty microliter reactions were set up in Nunc 384-Well Black microplates, and final reaction mixtures included 1 μM FlAsH-LexAPa ^CTD, the compounds (5% v/v DMSO in all the samples, including the controls devoid of compounds), and 1 μM RecAPa* (FP Buffer in the negative control; 30 mM Hepes, 150 mM NaCl, pH 7.1). The initial screening was performed with two dilutions of the compounds (25 and 125 μg/mL). The FP signal was measured after a 1 h incubation at 37 °C by an EnVision MultiMode Plate Reader (PerkinElmer) equipped with opportune FP filters and mirrors. To obtain LexAPa ^CTD autoproteolysis percent inhibition, FP data were scaled from 0% (corresponding to the positive control sample) to 100% (negative control).
Compounds displaying an inhibition of at least 50% at the highest concentration and a rather consistent increase in activity at the two tested concentrations were selected as the hits.
The same FP assay was carried out on serial dilutions of selected compounds to determine the dose–response relationship. To evaluate the effect of a reducing environment, 2 mM Tris(2-carboxyethyl)-phosphine (TCEP) was added to the reaction mixtures. The FP signal of FlAsH-LexAPa ^CTD alone was detected for 5 min before adding the compounds. The system was monitored for an additional 5 min in the presence of the tested compounds in order to observe potential aggregation events. Then, RecAPa* was added, and the autoproteolysis reaction was followed for 1 h at 37 °C (1 reading per minute). FlAsH-LexAPa ^CTD autoproteolysis percent inhibition was calculated as mentioned above and plotted as a function of compound concentration. Experimental data fitting was performed with GraphPad Prism 8 to obtain the absolute IC50.

[2] = system: P. aeruginosa PAO1 on THP-1-derived macrophages; assay: P. aeruginosa PAO1 colonization of THP-1-derived macrophages; assay type: cell-based
Protocol: THP-1-derived macrophages were generated from THP-1 monocytes as previously described, with minor modifications. , Briefly, THP-1 monocytes were washed three times with antibiotic-free RPMI 1640 medium and resuspended in complete antibiotic-free RPMI 1640 supplemented with 300 nM phorbol 12-myristate 13-acetate (PMA). Cells were incubated for 24 h, followed by a 48 h rest period in PMA-free RPMI 1640 prior to use in subsequent experiments. […] PMA-differentiated THP-1-derived macrophages were similarly trypsinized and seeded into 24-well plates at 5 × 10^5 cells/well in complete, antibiotic-free RPMI supplemented with FBS. Cells were incubated overnight to allow for attachment. Immediately prior to infection, the medium was aspirated, and cells were washed three times with Dulbecco’s phosphate-buffered saline. […] Infection was synchronized by centrifuging plates at 1000g for 1 min. […] Following the infection period, the medium was aspirated, and cells were washed three times with DPBS to remove unattached bacteria and residual test compounds. […] In both cases, the resulting lysates were serially diluted in DPBS and plated on tryptic soy agar plates. Plates were incubated at 37 °C for 24 h, after which colonies were enumerated. Bacterial burden was expressed as the CFU per well.

T2 sequence (P37452 81-204): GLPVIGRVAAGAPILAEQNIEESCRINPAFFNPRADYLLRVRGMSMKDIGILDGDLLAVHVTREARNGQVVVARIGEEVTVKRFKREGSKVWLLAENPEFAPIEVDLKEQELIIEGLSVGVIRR
T1 sequence (P08280 whole entry): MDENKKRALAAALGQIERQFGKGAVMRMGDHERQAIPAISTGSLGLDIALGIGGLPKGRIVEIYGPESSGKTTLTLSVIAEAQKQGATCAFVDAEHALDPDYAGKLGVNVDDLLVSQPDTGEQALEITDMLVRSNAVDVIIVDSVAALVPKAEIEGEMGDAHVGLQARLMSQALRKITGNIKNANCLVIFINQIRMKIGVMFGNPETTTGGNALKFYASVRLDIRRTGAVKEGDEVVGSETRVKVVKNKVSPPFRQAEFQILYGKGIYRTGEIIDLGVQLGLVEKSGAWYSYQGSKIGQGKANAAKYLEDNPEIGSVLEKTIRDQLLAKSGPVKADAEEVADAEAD

## O=C(O)CCNc1ccccc1S [A12, 3-(2-sulfanylanilino)propanoic acid]
RecAPa
  Mass difference of A12-modified RecAPa versus unmodified protein: 179 Da
[1]; 1 μM FlAsH-LexAPa CTD, 1 μM RecAPa*, 1 h at 37 °C, read-out: IC50 on RecA*Pa-induced LexAPa autoproteolysis (FP assay)
  IC50: 295 ± 12 µM
[1]; 2 mM TCEP
  A12 inhibitory activity under reducing conditions compared to nonreducing: significantly diminished
[1]; compound at 125 μg/mL, 1 h at 37 °C, read-out: LexA autoproteolysis inhibition in initial library screening
  inhibition at 125 µg/mL: > 50%
[2]; A12 100 μg/mL alone
  Intracellular (internalized) burden of PAO1 in THP-1-derived macrophages: reduced the internalized bacterial growth
[2]; combination of ciprofloxacin 0.5 μg/mL and A12 100 μg/mL
  Intracellular (internalized) burden of PAO1 in THP-1-derived macrophages: synergized with ciprofloxacin
[2]; single agent: ciprofloxacin 0.5 μg/mL or A12 100 μg/mL, 3 h infection
  Total (adherent + intracellular) burden of PAO1 on THP-1-derived macrophages: diminished
